From ChEMBL document CHEMBL3885881, “DrugMatrix”

Organism: Rattus norvegicus
Experiment: DrugMatrix - Regimen: Daily Repeat
Format: toxicity, organism-based, Sprague-Dawley
Design: regimen Daily Repeat, gender Male, age 6-8 weeks
Conditions: in vivo, po, route oral GAVAGE, vehicle 100 % WATER; for ABSOLUTE BASOPHIL / ABSOLUTE EOSINOPHIL / ABSOLUTE LYMPHOCYTE / ABSOLUTE MONOCYTE / ABSOLUTE SEGMENTED NEUTROPHIL / BASOPHIL / EOSINOPHIL / ERYTHROCYTE COUNT / HEMATOCRIT / HEMOGLOBIN / LEUKOCYTE COUNT / LYMPHOCYTE / MEAN CORPUSCULAR HEMOGLOBIN / MEAN CORPUSCULAR HEMOGLOBIN CONCENTRATION / MEAN CORPUSCULAR VOLUME / MONOCYTE / NEUTROPHIL / NUCLEATED RED BLOOD CELLS / PLATELET COUNT: tissue Blood; for ALANINE AMINOTRANSFERASE / ALBUMIN / ALKALINE PHOSPHATASE / ASPARTATE AMINOTRANSFERASE / BLOOD UREA NITROGEN / CARBON DIOXIDE / CHLORIDE / CHOLESTEROL / CREATINE PHOSPHOKINASE / CREATININE / GLUCOSE / LACTATE DEHYDROGENASE / LIPASE / PHOSPHORUS / POTASSIUM / SODIUM / TOTAL BILIRUBIN / TOTAL PROTEIN / URIC ACID: tissue Plasma
[1] = 11 mg/kg, 120 h, dose level Low, time 5 day
[2] = 1100 mg/kg, 72 h, dose level High, time 3 day
[3] = 1100 mg/kg, 120 h, dose level High, time 5 day

## CNS(=O)(=O)Cc1ccc2[nH]cc(CCN(C)C)c2c1
[1]
  ABSOLUTE BASOPHIL: 0 CELLS/uL
  ABSOLUTE EOSINOPHIL: 33.33 CELLS/uL
  ABSOLUTE LYMPHOCYTE: 13548.33 CELLS/uL
  ABSOLUTE MONOCYTE: 177 CELLS/uL
  ABSOLUTE SEGMENTED NEUTROPHIL: 608 CELLS/uL
  BASOPHIL: 0%
  EOSINOPHIL: 0.33%
  ERYTHROCYTE COUNT: 5.94 x10E6/uL
  HEMATOCRIT: 38.1%
  HEMOGLOBIN: 14.67 G/DL
  LEUKOCYTE COUNT: 14.37 x10E3/uL
  LYMPHOCYTE: 94%
  MEAN CORPUSCULAR HEMOGLOBIN: 24.67 pg
  MEAN CORPUSCULAR HEMOGLOBIN CONCENTRATION: 38.53 G/DL
  MEAN CORPUSCULAR VOLUME: 64.03 fL
  MONOCYTE: 1.33%
  NEUTROPHIL: 4.33%
  NUCLEATED RED BLOOD CELLS: 0 /100WBC
  PLATELET COUNT: 1140 x10E3/uL
  ALANINE AMINOTRANSFERASE: 51 u/L
  ALBUMIN: 4.23 G/DL
  ALKALINE PHOSPHATASE: 398.33 u/L
  ASPARTATE AMINOTRANSFERASE: 85.33 u/L
  BLOOD UREA NITROGEN: 15.67 mg/dL
  CARBON DIOXIDE: 31.67 mmol/L
  CHLORIDE: 101.67 MEQ/L
  CHOLESTEROL: 66 mg/dL
  CREATINE PHOSPHOKINASE: 235 u/L
  CREATININE: 0.17 mg/dL
  GLUCOSE: 139.67 mg/dL
  LACTATE DEHYDROGENASE: 145 u/L
  LIPASE: 10.33 u/L
  PHOSPHORUS: 11.03 mg/dL
  POTASSIUM: 6.19 MEQ/L
  SODIUM: 146.47 MEQ/L
  TOTAL BILIRUBIN: 0.17 mg/dL
  TOTAL PROTEIN: 6.37 G/DL
  URIC ACID: 0.83 mg/dL
[2]
  ABSOLUTE BASOPHIL: 0 CELLS/uL
  ABSOLUTE EOSINOPHIL: 0 CELLS/uL
  ABSOLUTE LYMPHOCYTE: 8603 CELLS/uL
  ABSOLUTE MONOCYTE: 74.33 CELLS/uL
  ABSOLUTE SEGMENTED NEUTROPHIL: 922.67 CELLS/uL
  BASOPHIL: 0%
  EOSINOPHIL: 0%
  ERYTHROCYTE COUNT: 5.83 x10E6/uL
  HEMATOCRIT: 35.8%
  HEMOGLOBIN: 13.87 G/DL
  LEUKOCYTE COUNT: 9.6 x10E3/uL
  LYMPHOCYTE: 89.67%
  MEAN CORPUSCULAR HEMOGLOBIN: 23.8 pg
  MEAN CORPUSCULAR HEMOGLOBIN CONCENTRATION: 38.73 G/DL
  MEAN CORPUSCULAR VOLUME: 61.43 fL
  MONOCYTE: 0.67%
  NEUTROPHIL: 9.67%
  NUCLEATED RED BLOOD CELLS: 0 /100WBC
  PLATELET COUNT: 1087.33 x10E3/uL
  ALANINE AMINOTRANSFERASE: 50.33 u/L
  ALBUMIN: 4.07 G/DL
  ALKALINE PHOSPHATASE: 367.67 u/L
  ASPARTATE AMINOTRANSFERASE: 86 u/L
  BLOOD UREA NITROGEN: 12.67 mg/dL
  CARBON DIOXIDE: 30 mmol/L
  CHLORIDE: 101.67 MEQ/L
  CHOLESTEROL: 70.33 mg/dL
  CREATINE PHOSPHOKINASE: 362.67 u/L
  CREATININE: 0.2 mg/dL
  GLUCOSE: 136.67 mg/dL
  LACTATE DEHYDROGENASE: 189.67 u/L
  LIPASE: 10.33 u/L
  PHOSPHORUS: 10.73 mg/dL
  POTASSIUM: 5.86 MEQ/L
  SODIUM: 145.13 MEQ/L
  TOTAL BILIRUBIN: 0.13 mg/dL
  TOTAL PROTEIN: 6.13 G/DL
  URIC ACID: 0.7 mg/dL
[3]
  ABSOLUTE BASOPHIL: 0 CELLS/uL
  ABSOLUTE EOSINOPHIL: 40.67 CELLS/uL
  ABSOLUTE LYMPHOCYTE: 8480 CELLS/uL
  ABSOLUTE MONOCYTE: 117.33 CELLS/uL
  ABSOLUTE SEGMENTED NEUTROPHIL: 862 CELLS/uL
  BASOPHIL: 0%
  EOSINOPHIL: 0.33%
  ERYTHROCYTE COUNT: 5.92 x10E6/uL
  HEMATOCRIT: 37.33%
  HEMOGLOBIN: 14.3 G/DL
  LEUKOCYTE COUNT: 9.5 x10E3/uL
  LYMPHOCYTE: 89.67%
  MEAN CORPUSCULAR HEMOGLOBIN: 24.2 pg
  MEAN CORPUSCULAR HEMOGLOBIN CONCENTRATION: 38.27 G/DL
  MEAN CORPUSCULAR VOLUME: 63.17 fL
  MONOCYTE: 1%
  NEUTROPHIL: 9%
  NUCLEATED RED BLOOD CELLS: 0 /100WBC
  PLATELET COUNT: 1190.33 x10E3/uL
  ALANINE AMINOTRANSFERASE: 47.67 u/L
  ALBUMIN: 4.07 G/DL
  ALKALINE PHOSPHATASE: 329 u/L
  ASPARTATE AMINOTRANSFERASE: 87.67 u/L
  BLOOD UREA NITROGEN: 15.67 mg/dL
  CARBON DIOXIDE: 31 mmol/L
  CHLORIDE: 100 MEQ/L
  CHOLESTEROL: 65.67 mg/dL
  CREATINE PHOSPHOKINASE: 337 u/L
  CREATININE: 0.17 mg/dL
  GLUCOSE: 135.33 mg/dL
  LACTATE DEHYDROGENASE: 119.67 u/L
  LIPASE: 10.33 u/L
  PHOSPHORUS: 9.67 mg/dL
  POTASSIUM: 6.24 MEQ/L
  SODIUM: 145.07 MEQ/L
  TOTAL BILIRUBIN: 0.2 mg/dL
  TOTAL PROTEIN: 6.2 G/DL
  URIC ACID: 0.83 mg/dL
